# Test results reported in patent EP4603105A1, “PHARMACEUTICAL COMPOSITION CONTAINING CYCLIC COMPOUND HAVING SELECTIVE KRAS INHIBITORY EFFECT AGAINST HRAS AND NRAS” (CHUGAI SEIYAKU KABUSHIKI KAISHA, priority 2022, dated 2024).
# Where a SMILES comes first, the peptide text is derived from it. Bridges are numbered along the chain shown (N, C = ends). [ ]: non-standard residue; d: D form. The star is where a group is joined. hPhe(3-Cl-4-CF3) = N[C@@H](CCc1ccc(C(F)(F)F)c(Cl)c1)C(=O)O; NPrPhe(4-CF3) = CCCN[C@@H](Cc1ccc(C(F)(F)F)cc1)C(=O)O; NMeGly(cPent) = CN[C@H](C(=O)O)C1CCCC1; Pro(4,4-F2) = O=C(O)[C@@H]1CC(F)(F)CN1; NMeNva(3-Et) = CCC(CC)[C@H](NC)C(=O)O; NMeD = CN[C@@H](CC(=O)O)C(=O)O; NMeL = CN[C@@H](CC(C)C)C(=O)O; Morpholide = C1CN(*)CCO1; Ac5c = NC1(C(=O)O)CCCC1; Ac4c = NC1(C(=O)O)CCC1; NEtG = CCNCC(=O)O; Sar = CNCC(=O)O
# Experiments:
# HRAS wild-type protein = HRAS wild-type protein (Homo sapiens, UniProt P01112); assay: Binding to HRAS by surface plasmon resonance (SPR), KD and KD ratio to KRAS
# Sequence of HRAS wild-type protein (P01112 whole entry): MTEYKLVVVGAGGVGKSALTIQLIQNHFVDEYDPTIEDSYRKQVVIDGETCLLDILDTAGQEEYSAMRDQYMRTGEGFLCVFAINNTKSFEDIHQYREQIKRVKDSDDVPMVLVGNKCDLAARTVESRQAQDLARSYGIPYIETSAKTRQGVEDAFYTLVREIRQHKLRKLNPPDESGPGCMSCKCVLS
# Method in brief: (§1)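 Running buffer contained 10 µM GDP and 10 mM MgCl2 to keep RAS in the GDP state, with 4% DMSO at pH 7.4. Compounds were flowed at 100 µL/min in 75 s steps of rising concentration over captured biotin-Avi RAS at 30°C. Sensorgrams were fitted 1:1 for KD.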
# [1] = tested on: human lung cancer strain NCI-H441; assay type: cell-based
# Method in brief: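 Step one: dispense the test compound in serial DMSO dilutions. Step three: add the reagent and measure […].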
# [2] = target: GDP-bound NRAS wild-type protein (Homo sapiens, UniProt P01111); assay: Binding to NRAS by surface plasmon resonance (SPR), KD and KD ratio to KRAS
# Sequence of GDP-bound NRAS wild-type protein (P01111 whole entry): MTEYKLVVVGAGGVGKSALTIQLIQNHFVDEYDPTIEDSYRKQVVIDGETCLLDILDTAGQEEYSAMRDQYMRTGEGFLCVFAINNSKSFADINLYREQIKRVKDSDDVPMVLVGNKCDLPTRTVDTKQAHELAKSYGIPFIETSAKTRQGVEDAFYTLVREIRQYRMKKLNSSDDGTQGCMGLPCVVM
# Method in brief: as §1
# [3] = ratio of KD for HRAS wild-type protein to KD for KRAS
# [4] = ratio of KD for GDP-bound NRAS wild-type protein to KD for KRAS
# [5] = ratio of the KD value with respect to HRAS wild-type protein to the KD value with respect to KRAS
# [6] = ratio of the KD value with respect to GDP-bound NRAS wild-type protein to the KD value with respect to KRAS
# [7] = ratio of KD value for HRAS wild-type protein to KD value for KRAS (SPR)
# [8] = ratio of KD value for GDP-bound NRAS wild-type protein to KD value for KRAS (SPR)
smiles,measurement,setting,value
CCC[C@H]1C(=O)N[C@@H](C2CCCC2)C(=O)N(C)CC(=O)N(C)[C@H]2C/C=C\CCN(C2=O)[C@@H](Cc2ccc(C(F)(F)F)cc2)C(=O)N(C)CC(=O)N[C@@H](CCc2ccc(C(F)(F)F)c(Cl)c2)C(=O)N2CC3(CC3)C[C@H]2C(=O)NC2(CC(C)(C)C2)C(=O)N(C)[C@@H](C2CCCC2)C(=O)N(C)[C@H](C(=O)N(C)C)CC(=O)N1C [PP2986],HRAS /KRAS,HRAS wild-type protein; [3],A (a compound having 10 or more and less than 20 is denoted as A)
same,IC50,[1],25.1 nM
same,NRAS /KRAS,[2]; [4],AA (a compound having 20 or more is denoted as AA)
CCO[C@@H]1C[C@H]2C(=O)NC3(CC=CC3)C(=O)N(C)[C@@H](C3CCCC3)C(=O)N(CC)[C@H](C(=O)N3CCOCC3)CC(=O)N(C)[C@@H](CC(C)C)C(=O)N[C@@H]([C@@H](C)CC)C(=O)N(C)CC(=O)N(C)[C@H]3CCCCCN(C3=O)[C@@H](Cc3ccc(C(F)(F)F)cc3)C(=O)N(C)CC(=O)N[C@@H](CCc3cc(F)c(C(F)(F)F)c(F)c3)C(=O)N2C1 [PP0956],HRAS /KRAS,HRAS wild-type protein; [3],A (a compound having 10 or more and less than 20 is denoted as A)
same,IC50,[1],690 nM
same,NRAS /KRAS,[2]; [4],A (a compound having 10 or more and less than 20 is denoted as A)
C=CCN1CC(=O)N(C)[C@H]2C/C=C\CCN(C2=O)[C@@H](Cc2ccc(C)cc2)C(=O)N(C)CC(=O)N[C@@H](CCc2cc(F)c(C(F)(F)F)c(F)c2)C(=O)N2C[C@H](OCC)C[C@H]2C(=O)NC2(CC(C)(C)C2)C(=O)N(C)[C@@H](C2CCCC2)C(=O)N(C)[C@H](C(=O)N(C)C)CC(=O)N(C)[C@@H](CCC)C(=O)N[C@@H]([C@@H](C)CC)C1=O [PP2094],HRAS /KRAS,HRAS wild-type protein; [5],A (a compound having 10 or more and less than 20 is denoted as A)
same,IC50,[1],5.4 nM
same,NRAS /KRAS,[2]; [6],A (a compound having 10 or more and less than 20 is denoted as A)
"CCCN1C(=O)CN(C)C(=O)CN(C)C(=O)[C@H]([C@@H](C)CC)NC(=O)[C@H](CC(C)C)N(C)C(=O)C[C@@H](C(=O)N2CCOCC2)N(C)C(=O)[C@H](C2CCCC2)N(C)C(=O)C2(CCCC2)NC(=O)[C@@H]2CC(F)(F)CN2C(=O)[C@H](CCc2ccc(C(F)(F)F)c(Cl)c2)NC(=O)CN(C)C(=O)[C@@H]1Cc1ccc(C(F)(F)F)cc1 [PP0195] ([NMeL]I[Sar][Sar][NPrPhe(4-CF3)][Sar][hPhe(3-Cl-4-CF3)][Pro(4,4-F2)][Ac5c][NMeGly(cPent)][NMeD]-Morpholide; lactam N-11)",HRAS /KRAS,HRAS wild-type protein; [3],C (A compound having a KD ratio of 0.1 or more and less than 3 is denoted as C)
same,IC50,[1],2.7 nM
same,NRAS /KRAS,[2]; [4],B (a compound having 3 or more and less than 10 is denoted as B)
C=CCN1CC(=O)N(C)[C@H]2C/C=C\CCN(C2=O)[C@@H](Cc2ccc(C(F)(F)F)cc2)C(=O)N(C)CC(=O)N[C@@H](CCc2ccc(C(F)(F)F)c(OC)c2)C(=O)N2C[C@H](OCC)C[C@H]2C(=O)NC2(CC(C)(C)C2)C(=O)N(C)[C@@H](C2CCCC2)C(=O)N(C)[C@H](C(=O)N(C)C)CC(=O)N(C)[C@@H](CCC)C(=O)N[C@@H]([C@@H](C)CC)C1=O [PP2106],HRAS /KRAS,HRAS wild-type protein; [5],A (a compound having 10 or more and less than 20 is denoted as A)
same,IC50,[1],6.1 nM
same,NRAS /KRAS,[2]; [6],A (a compound having 10 or more and less than 20 is denoted as A)
CC[C@H](C)[C@@H]1NC(=O)[C@H](CC(C)C)N(C)C(=O)C[C@@H](C(=O)N(C)C)N(C)C(=O)[C@H](C2CCCC2)N(C)C(=O)C2(CC(C)(C)C2)NC(=O)CN(C)C(=O)[C@H](CCc2cc(F)c(C(F)(F)F)c(F)c2)NC(=O)CN(C)C(=O)[C@H](Cc2ccc(C(F)(F)F)cc2)N2CC/C=C\C[C@@H](C2=O)N(C)C(=O)CN(C)C1=O [PP1776],HRAS /KRAS,HRAS wild-type protein; [7],A (a compound having 10 or more and less than 20 is denoted as A)
same,IC50,[1],98.7 nM
same,NRAS /KRAS,[2]; [8],A (a compound having 10 or more and less than 20 is denoted as A)
CCC[C@H]1C(=O)N[C@@H]([C@@H](C)CC)C(=O)N(C)CC(=O)N(C)[C@H]2C/C=C\CCN(C2=O)[C@@H](Cc2ccc(C)cc2)C(=O)N(C)CC(=O)N[C@@H](CCc2cc(F)c(C(F)F)c(F)c2)C(=O)N2C[C@H](OCC)C[C@H]2C(=O)NC2(CC(C)(C)C2)C(=O)N(C)[C@@H](C2CCCC2)C(=O)N(C)[C@H](C(=O)N(C)C)CC(=O)N1C [PP2782],HRAS /KRAS,HRAS wild-type protein; [3],A (a compound having 10 or more and less than 20 is denoted as A)
same,IC50,[1],59.1 nM
same,NRAS /KRAS,[2]; [4],A (a compound having 10 or more and less than 20 is denoted as A)
CCCN1C(=O)CN(C)C(=O)CN(CC)C(=O)[C@H]([C@@H](C)CC)NC(=O)[C@H](CC(C)C)N(C)C(=O)C[C@@H](C(=O)N2CCOCC2)NC(=O)[C@H](C2CCCC2)N(C)C(=O)C2(CCCC2)NC(=O)[C@@H]2CCCN2C(=O)[C@H](CCc2ccc(C(F)(F)F)c(Cl)c2)NC(=O)CN(C)C(=O)[C@@H]1Cc1ccc(C(F)(F)F)cc1 [PP0331] ([NMeL]I[NEtG][Sar][NPrPhe(4-CF3)][Sar][hPhe(3-Cl-4-CF3)]P[Ac5c][NMeGly(cPent)]D-Morpholide; lactam N-11),HRAS /KRAS,HRAS wild-type protein; [3],B (a compound having 3 or more and less than 10 is denoted as B)
same,IC50,[1],84.7 nM
same,NRAS /KRAS,[2]; [4],B (a compound having 3 or more and less than 10 is denoted as B)
CCO[C@@H]1C[C@H]2C(=O)NC3(CCC3)C(=O)N(C)[C@@H](C3CCCC3)C(=O)N[C@H](C)CC(=O)N(C)[C@@H](CC)C(=O)N[C@@H]([C@@H](C)CC)C(=O)N(C)CC(=O)N(C)[C@H]3C/C=C\CCN(C3=O)[C@@H](Cc3ccc(C(F)(F)F)cc3)C(=O)N(C)CC(=O)N[C@@H](CCc3cc(F)c(C(F)(F)F)c(F)c3)C(=O)N2C1 [PP1098],HRAS /KRAS,HRAS wild-type protein; [3],B (a compound having 3 or more and less than 10 is denoted as B)
same,IC50,[1],101 nM
same,NRAS /KRAS,[2]; [4],B (a compound having 3 or more and less than 10 is denoted as B)
CCO[C@@H]1C[C@H]2C(=O)N(C)C3(CCCC3)C(=O)N(C)[C@@H](C3CCCC3)C(=O)N(C)[C@H](C(=O)N(C)C)CC(=O)N(C)[C@@H](CC)C(=O)N[C@@H]([C@@H](C)CC)C(=O)N(C)CC(=O)N(C)[C@H]3C/C=C\CCN(C3=O)[C@@H](Cc3ccc(C(F)(F)F)cc3)C(=O)N(C)CC(=O)N[C@@H](CCc3cc(F)c(C(F)(F)F)c(F)c3)C(=O)N2C1 [PP1804],HRAS /KRAS,HRAS wild-type protein; [7],A (a compound having 10 or more and less than 20 is denoted as A)
same,IC50,[1],3.5 nM
same,NRAS /KRAS,[2]; [8],A (a compound having 10 or more and less than 20 is denoted as A)
CCCN1C(=O)CN(C)C(=O)CN(C)C(=O)[C@H]([C@@H](C)CC)NC(=O)[C@H](CC(C)C)N(C)C(=O)C[C@@H](C(=O)N(C)C)N(C)C(=O)[C@H](C(CC)CC)N(C)C(=O)C2(CCC2)NC(=O)[C@@H]2CCCN2C(=O)[C@H](CCc2ccc(C(F)(F)F)c(Cl)c2)NC(=O)CN(C)C(=O)[C@@H]1Cc1ccc(C(F)(F)F)cc1 [PP1960] ([NMeL]I[Sar][Sar][NPrPhe(4-CF3)][Sar][hPhe(3-Cl-4-CF3)]P[Ac4c][NMeNva(3-Et)][NMeD]-NMe2; lactam N-11),HRAS /KRAS,HRAS wild-type protein; [5],C (A compound having a KD ratio of 0.1 or more and less than 3 is denoted as C)
same,IC50,[1],6 nM
same,NRAS /KRAS,[2]; [6],B (a compound having 3 or more and less than 10 is denoted as B)
CCCO[C@H]1CCN2C(=O)[C@H](CCc3cc(F)c(C(F)(F)F)c(F)c3)NC(=O)CN(C)C(=O)[C@H](Cc3ccc(C(F)(F)F)cc3)N3CCCCC[C@@H](C3=O)N(C)C(=O)CN(C)C(=O)[C@H]([C@@H](C)CC)NC(=O)[C@H](CC(C)C)N(C)C(=O)C[C@@H](C(=O)N3CCOCC3)N(C)C(=O)[C@H](C3CCCC3)N(C)C(=O)C3(CCC3)NC(=O)[C@H]12 [PP1069],HRAS /KRAS,HRAS wild-type protein; [3],B (a compound having 3 or more and less than 10 is denoted as B)
same,IC50,[1],127 nM
same,NRAS /KRAS,[2]; [4],A (a compound having 10 or more and less than 20 is denoted as A)
CCCN(C)C(=O)[C@@H]1CC(=O)N(C)[C@@H](COCC)C(=O)N[C@@H]([C@@H](C)CC)C(=O)N(C)CC(=O)N(C)[C@H]2C/C=C\CCN(C2=O)[C@@H](Cc2ccc(C(F)(F)F)cc2)C(=O)N(C)CC(=O)N[C@@H](CCc2ccc(C(F)(F)F)c(OC)c2)C(=O)N2C[C@H](OCC)C[C@H]2C(=O)NC2(CCC2)C(=O)N(C)[C@@H](C2CCCC2)C(=O)N1C [PP2015],HRAS /KRAS,HRAS wild-type protein; [5],B (a compound having 3 or more and less than 10 is denoted as B)
same,IC50,[1],5.6 nM
same,NRAS /KRAS,[2]; [6],A (a compound having 10 or more and less than 20 is denoted as A)
CCCOC[C@H]1C(=O)N[C@@H]([C@@H](C)CC)C(=O)N(C)CC(=O)N(C)[C@H]2C/C=C\CCN(C2=O)[C@@H](Cc2ccc(C(F)(F)F)cc2)C(=O)N(C)CC(=O)N[C@@H](CCc2ccc(C(F)(F)F)c(Cl)c2)C(=O)N2C[C@H](OCC)C[C@H]2C(=O)NC2(CCC2)C(=O)N(C)[C@@H](C2CCCC2)C(=O)N(C)[C@H](C(=O)N(C)CCC)CC(=O)N1C [PP2831],HRAS /KRAS,HRAS wild-type protein; [3],A (a compound having 10 or more and less than 20 is denoted as A)
same,IC50,[1],14.1 nM
same,NRAS /KRAS,[2]; [4],A (a compound having 10 or more and less than 20 is denoted as A)
